Results from PMC6826928, “A New Natural Antioxidant Biomaterial from Cinnamomum osmophloeum Kanehira Leaves Represses Melanogenesis and Protects against DNA Damage” (Antioxidants, 2019).

Tested on: T1, mushroom tyrosinase
T1 construct: gene PPO3; commercial native preparation from Merck; likely isoenzyme mixture
Experiment: absorbance at […] nm, Lineweaver–Burk plot
Type: biochemical
Conditions: no inhibitor, 0.2 M sodium phosphate pH 6.8, 25 °C

Row | Compound | Km (diphenolase activity) [mg/mL] | Km (monophenolase activity) [mg/mL]
1 | N[C@@H](Cc1ccc(O)c(O)c1)C(=O)O [L-DOPA, L-3,4-dihydroxyphenylalanine] | 0.511 | –
2 | N[C@@H](Cc1ccc(O)cc1)C(=O)O [L-tyrosine] | – | 0.534
